According to patent US20120077836A1, “METHODS OF ADMINISTERING (4AR,10AR)-1-N-PROPYL-1,2,3,4,4A,5,10,10A-OCTAHYDROBENZO [G] QUINOLINE-6,7-DIOL AND RELATED COMPOUNDS ACROSS THE ORAL MUCOSA, THE NASAL MUCOSA OR THE SKIN AND PHARMACEUTICAL COMPOSITIONS THEREOF” (priority 2009, published 2012):
Several values for one entry are separate records, joined by “and”; a condition that tells them apart may be missing. Identical values can stand only once. Counter-ions that a name gives are not always drawn. Like-named read-outs stand apart in the source and are kept apart here.

Test: Intravenous and buccal pharmacokinetic study in the minipig
Assay type: in vivo
Procedure: The test article was compound 10. The vehicles for the test article were Sterile saline (0.9% NaCl) (intravenous administration) supplied by Baxter, Norfolk or Ascorbic acid reconstituted in Water for Injection (buccal administration) supplied by VWR International, Leicestershire. Formulations were prepared on the day of dosing.
Three male minipigs of the Göttingen ApS strain were supplied by Ellegaard Göttingen, Dalmose, Denmark. At initiation of dosing, animals were approximately 15 to 17 weeks old. Each animal was dosed once on three separate occasions according to the following study design:
Animals were deprived of food overnight and anaesthetised with isoflurane in oxygen (administered by facemask), prior to each dosing occasion.
Intravenous administrations were performed by slow manual injection via a temporary catheter placed in the ear vein whilst under anaesthesia, animals were allowed to recover from the anaesthesia immediately after dosing. Whilst anaesthetised, a catheter was inserted into the jugular vein and secured in place for the purpose of blood collection. The catheter was filled with heparin (250 iu/mL in 0.9% sodium chloride). The exterior portion of the catheter was routed from the ventral neck to the dorsum of the minipig and protected by bandaging. The distal end of the catheter was capped and placed in a re-sealable pouch within the bandage. The jugular catheter was retained in place and flushed with heparinised saline every 24 hours.
Buccal administrations were performed by applying the test formulation to the buccal membrane for 5 minutes while the animal was anaesthetised. Any residual formulation remaining in the mouth after the 5 minute application was […]. Animals were allowed to recover from the anaesthesia immediately after dosing.
, all animals on Day 3 following buccal administration of a low dose and all animals on Day 5 following buccal administration of a high dose for pharmacokinetic analysis. The samples (1.0 mL) were collected from the jugular vein (via catheter) into tubes containing EDTA anticoagulant. Prior to addition of the blood sample, 100 microL of a stabiliser (2% beta-mercaptoethanol containing 20 mg/mL ascorbic acid) was added to each pot. The stabiliser was prepared fresh on each day of sample collection. Samples were collected as follows: • Day 1: 5, 10, 15, 30 and 45 minutes and 1, 2, 4, 6, 8, 12 and 16 hours post-dose • Day 3: pre-dose and at 5, 10, 15, 30 and 45 minutes and 1, 2, 4, 6, 8, 12, 16 and 24 hours post-dose • Day 5: pre-dose and at 5, 10, 15, 30 and 45 minutes and 1, 2, 4, 6, 8, 12, 16 and 24 hours post-dose
The times of the blood sampling were generally adhered to. The greatest deviation from the scheduled timepoints was one minute late at the 5 minute timepoint on Day 3. The blood samples were centrifuged within one hour of sample collection and the resultant plasma was frozen prior to analysis.
The plasma concentrations of compound 10 were determined after solid phase extraction of the plasma samples followed by high performance liquid chromatography with tandem mass spectrometric detection (LC-MS/MS) using a sample volume of about 100 microL.
Internal standard solution, containing the internal standard of compound 10 was added to thawed plasma samples (100 microL aliquot). The SPE plate (Oasis HLB, 10 mg) was conditioned with methanol (500 microL) followed by water (500 microL). The sample (approx. 500 microL aliquot) was transferred to the pre-conditioned SPE plate. The sample was then passed through the cartridge, which was then washed with water:methanol (90:10 v/v, 0.5 mL). The sample was then eluted into a fresh 96 well polypropylene collection plate with 20 mM ammonium formate (aq): acetonitrile: formic acid (50:50:2 v/v/v, 250 microL). The organic component of the eluted samples was then evaporated under a gentle stream of nitrogen until approximately 50% of the original volume was remaining. […]

[1] = IV 0.0025 mg/kg, individual animals 1-3, hydrobromide, 0.0025 mg/kg
[2] = buccal 0.010 mg/kg, individual animals 1-3, hydrobromide
[3] = buccal 40 μg/kg versus 10 μg/kg, males
[4] = buccal 0.040 mg/kg, individual animals 1-3, hydrobromide
[5] = buccal, 0.010 to 0.040 mg/kg (4-fold dose increase)

In the case of `CCCN1CCC[C@@H]2Cc3c(ccc(O)c3O)C[C@H]21` [compound 10, (4aR,10aR)-1-n-Propyl-1,2,3,4,4a,5,10,10a-octahydro-benzo[g]quinoline-6,7-diol hydrobromide], the “Plasma concentration Day 1 Hour 0.08” value [1] is reported as 1.72 ng/mL and 1.92 ng/mL, the “Plasma concentration Day 1 Hour 0.17” value [1] is reported as 0.976 ng/mL and 1.26 ng/mL and the “Plasma concentration Day 1 Hour 0.25” value [1] is reported as 1.17 ng/mL and 0.828 ng/mL. For the same molecule, the “Plasma concentration Day 1 Hour 0.5” value [1] was 0.922 ng/mL and 0.536 ng/mL, the “Plasma concentration Day 1 Hour 0.75” value [1] was 0.656 ng/mL and 0.667 ng/mL and the “Plasma concentration Day 1 Hour 1” value [1] was 0.432 ng/mL and 0.451 ng/mL. For the same molecule, the “Plasma concentration Day 1 Hour 2” value [1] was 0.196 ng/mL and 0.352 ng/mL, the “Plasma concentration Day 1 Hour 4” value [1] was 0.0763 ng/mL and 0.115 ng/mL and the “Plasma concentration Day 1 Hour 6” value [1] was 0.0562 ng/mL and 0.0756 ng/mL. For the same molecule, the “Plasma concentration Day 1 Hour 8” value [1] was 0.0339 ng/mL and 0.0407 ng/mL, the “Plasma concentration Day 1 Hour 12” value [1] was 0.0299 ng/mL and 0.0209 ng/mL and the “Plasma concentration Day 1 Hour 16” value (IV 0.0025 mg/kg, individual animals 1-3, values below LLOQ 10 pg/mL estimated, hydrobromide, 0.0025 mg/kg) was 0.00925 ng/mL and 0.0101 ng/mL. For the same molecule, the “time of maximum plasma concentration” value (IV bolus 0.0025 mg/kg, first sampling time) was 5 min, the “time of maximum plasma concentration” value (buccal 0.010 mg/kg and 0.040 mg/kg) was “about 0.75 hours” and the “Plasma concentration Day 1 Hour 4” value [2] was 0.0983 ng/mL and 0.0917 ng/mL and 0.206 ng/mL. For the same molecule, the “Plasma concentration Day 1 Hour 6” value [2] was 0.0845 ng/mL and 0.0265 ng/mL and 0.0758 ng/mL, the “Plasma concentration Day 1 Hour 8” value [2] was 0.0467 ng/mL and 0.0261 ng/mL and 0.0554 ng/mL and the “Plasma concentration Day 1 Hour 12” value [2] was 0.0268 ng/mL and 0.0234 ng/mL and 0.157 ng/mL. For the same molecule, the “Plasma concentration Day 3 Hour 0.08” value [2] was 0.0161 ng/mL and 0.379 ng/mL and 0.0552 ng/mL, the “Plasma concentration Day 3 Hour 0.17” value [2] was 0.117 ng/mL and 0.105 ng/mL and 0.221 ng/mL and the “Plasma concentration Day 3 Hour 0.25” value [2] was 0.134 ng/mL and 0.185 ng/mL and 0.622 ng/mL. The “Plasma concentration Day 3 Hour 0.5” value [2] was 0.758 ng/mL and 0.556 ng/mL, the “Plasma concentration Day 3 Hour 0.75” value [2] was 1.1 ng/mL and 0.964 ng/mL and the “Plasma concentration Day 3 Hour 1” value [2] was 0.791 ng/mL and 0.817 ng/mL. The “Plasma concentration Day 3 Hour 2” value [2] was 0.501 ng/mL and 0.372 ng/mL, the “Plasma concentration Day 1 Hour 24” value (buccal 0.010 mg/kg, individual animals 1-3, values below LLOQ 10 pg/mL estimated, hydrobromide) was <0.002 ng/mL and 0.00494 ng/mL and 0.0261 ng/mL and the “Increase in AUC0-∞ (first line)” value [3] was 12.1 fold. For the same molecule, the “Increase in AUC0-∞ (second line)” value [3] was 18.9 fold, the “increase in Cmax” value [3] was 11.9 fold and the “Plasma concentration Day 1 Hour 4” value [4] was 2.56 ng/mL and 0.746 ng/mL and 2.49 ng/mL. The “Plasma concentration Day 1 Hour 6” value [4] was 0.781 ng/mL and 0.278 ng/mL and 1.73 ng/mL, the “Plasma concentration Day 1 Hour 8” value [4] was 0.445 ng/mL and 0.212 ng/mL and 0.91 ng/mL and the “Plasma concentration Day 1 Hour 12” value [4] was 0.272 ng/mL and 0.139 ng/mL and 1.4 ng/mL. For the same molecule, the “Plasma concentration Day 1 Hour 16” value [4] was 0.142 ng/mL and 0.0584 ng/mL and 0.677 ng/mL, the “Plasma concentration Day 1 Hour 24” value [4] was 0.0443 ng/mL and 0.0789 ng/mL and 0.233 ng/mL and the “Plasma concentration Day 5 Hour 0.08” value [4] was 2.75 ng/mL and 0.695 ng/mL and 0.427 ng/mL. For the same molecule, the “Plasma concentration Day 5 Hour 0.17” value [4] was 6.06 ng/mL and 1.93 ng/mL and 1.82 ng/mL, the “Plasma concentration Day 5 Hour 0.25” value [4] was 9.14 ng/mL and 3.33 ng/mL and 3.89 ng/mL and the “Plasma concentration Day 5 Hour 0.5” value [4] was 8.23 ng/mL and 5.31 ng/mL. The “Plasma concentration Day 5 Hour 0.75” value [4] was 10.7 ng/mL and 10.5 ng/mL, the “Plasma concentration Day 5 Hour 1” value [4] was 10.8 ng/mL and 9.58 ng/mL and the “Plasma concentration Day 5 Hour 2” value [4] was 8.68 ng/mL and 6.34 ng/mL and 3.88 ng/mL. The “increase in AUC0-∞” value [5] was 12 fold, the “increase in Cmax” value [5] was 12 fold and the concentration at 0.5 h (male, Göttingen, in vivo, 0.01 mg/kg, buccal 0.010 mg/kg, individual animals 1-3, read-out: Plasma concentration Day 3 Hour 0.5) was 0.943 ng/mL. The concentration at 0.75 h (male, Göttingen, in vivo, 0.01 mg/kg, buccal 0.010 mg/kg, individual animals 1-3, read-out: Plasma concentration Day 3 Hour 0.75) was 1.07 ng/mL, the concentration at 1 h (male, Göttingen, in vivo, 0.01 mg/kg, buccal 0.010 mg/kg, individual animals 1-3, read-out: Plasma concentration Day 3 Hour 1) was 1 ng/mL and the concentration at 2 h (male, Göttingen, in vivo, 0.01 mg/kg, buccal 0.010 mg/kg, individual animals 1-3, read-out: Plasma concentration Day 3 Hour 2) was 0.589 ng/mL. For the same molecule, the concentration at 16 h (male, Göttingen, in vivo, 0.01 mg/kg, buccal 0.010 mg/kg, individual animals, below LLOQ 10 pg/mL, estimated, read-out: Plasma concentration Day 1 Hour 16) was 0.00691 ng/mL, the concentration at 16 h (male, Göttingen, in vivo, 0.01 mg/kg, buccal 0.010 mg/kg, mean (one animal only), read-out: Plasma concentration Day 1 Hour 16, Mean) was 0.00691 ng/mL and the concentration at 4 h (male, Göttingen, in vivo, 0.01 mg/kg, buccal 0.010 mg/kg, mean, read-out: Plasma concentration Day 1 Hour 4, Mean) was 0.132 ng/mL. It also gave a concentration at 6 h (male, Göttingen, in vivo, 0.01 mg/kg, buccal 0.010 mg/kg, mean, read-out: Plasma concentration Day 1 Hour 6, Mean) of 0.0623 ng/mL, a concentration at 8 h (male, Göttingen, in vivo, 0.01 mg/kg, buccal 0.010 mg/kg, mean, read-out: Plasma concentration Day 1 Hour 8, Mean) of 0.0427 ng/mL and a concentration at 12 h (male, Göttingen, in vivo, 0.01 mg/kg, buccal 0.010 mg/kg, mean, read-out: Plasma concentration Day 1 Hour 12, Mean) of 0.0691 ng/mL. It also gave a concentration at 24 h (male, Göttingen, in vivo, 0.01 mg/kg, buccal 0.010 mg/kg, mean, read-out: Plasma concentration Day 1 Hour 24, Mean) of 0.0155 ng/mL and a concentration at 0.08 h (male, Göttingen, in vivo, 0.01 mg/kg, buccal 0.010 mg/kg, mean, read-out: Plasma concentration Day 3 Hour 0.08, Mean) of 0.15 ng/mL.
